Patent US20060222595A1, “Nanoparticles for therapeutic and diagnostic applications” (priority 2005, published 2006)

Assay: Saturation concentration of agents on gold nanoparticles (UV-Visible absorbance)
Assay type: physicochemical
Experimental: The individual saturation concentrations of a monoclonal anti-VEGF antibody agent and a gemcitabine agent to gold nanoparticles were determined in the following manner. Eight tubes containing 1 ml of gold nanoparticles each were incubated with increasing concentrations of the anti-VEGF antibody for 30 minutes, followed by an aggregation assay involving incubation with 100 μl of a 10% NaCl solution. Approximately 15 min. after the addition of the NaCl solution, the UV-Visible spectra were recorded using a Shimadzu model system (UV2401 PC), and the saturation concentration of the antibody was determined.
The attachment of gemcitabine to the gold nanoparticles and the determination of its saturation concentration were performed similarly.
The saturation concentration of gemcitabine on the gold nanoparticles was determined in a similar manner. Gold nanoparticles were incubated with different concentrations of gemcitabine for 30 min., and their UV-Visible spectra were recorded. […] This shift in Ymax value with a concomitant decrease in absorbance and a broadening of the spectra may be attributed to the aggregation of gold nanoparticles upon the addition of gemcitabine beyond the 20 μg limit. […]

Row | SMILES | saturation concentration of dopamine on gold nanoparticles (surface plasmon resonance band, UV-visible spectroscopy) [µg/mL] | saturation concentration of gemcitabine on gold nanoparticles (absorbance maximum) (30 min incubation, UV-Visible spectra) [µg]
1 | NCCc1ccc(O)c(O)c1 [dopamine] | ~30 | 
2 | Nc1ccn([C@@H]2O[C@H](CO)[C@@H](O)C2(F)F)c(=O)n1 [gemcitabine] |  | 20
